Columns and labels:
poliovirus polymerase [1] = molecular target: T1, poliovirus polymerase (Poliovirus type 1, UniProt P03300)
poliovirus polymerase [2] = molecular target: T1, poliovirus polymerase; remark: listed apart in the source
poliovirus polymerase [3] = molecular target: T1, poliovirus polymerase; remark: listed apart in the source
[4] = molecular target: lattices of poliovirus polymerase (Poliovirus type 1, UniProt P03300)
Sequence of lattices of poliovirus polymerase (P03300 1749-2209 limits assumed): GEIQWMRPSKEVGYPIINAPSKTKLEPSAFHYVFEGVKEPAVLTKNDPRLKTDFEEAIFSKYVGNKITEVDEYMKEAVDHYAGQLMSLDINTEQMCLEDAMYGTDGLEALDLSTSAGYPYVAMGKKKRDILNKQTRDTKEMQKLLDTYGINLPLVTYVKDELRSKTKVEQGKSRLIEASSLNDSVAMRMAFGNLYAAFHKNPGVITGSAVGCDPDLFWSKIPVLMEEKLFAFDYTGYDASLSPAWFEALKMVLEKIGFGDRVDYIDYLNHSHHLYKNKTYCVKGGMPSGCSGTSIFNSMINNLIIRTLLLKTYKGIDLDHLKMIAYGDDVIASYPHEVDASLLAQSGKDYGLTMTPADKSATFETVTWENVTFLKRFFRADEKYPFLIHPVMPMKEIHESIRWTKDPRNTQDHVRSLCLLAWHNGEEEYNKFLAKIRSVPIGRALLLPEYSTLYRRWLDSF

T1 sequence (P03300 1749-2209 limits assumed): as above

KPHKCTFEGCRKSYSRSTNLRRHLNSH (SEQ ID NO:5) [Peptide 1]
cooperativity of the elongation reaction (poliovirus polymerase [1]): loss of cooperativity
inhibition of poliovirus polymerase (poliovirus polymerase [1]): inhibits poliovirus polymerase effectively
inhibition of the polymerase reaction (poliovirus polymerase [1]): marked inhibition
amount of UTP incorporated (poliovirus polymerase [2]): diminished
UTP incorporation (poliovirus polymerase [3]): dramatic stimulation
sheets and tubes of polymerase by electron microscopy [4]: replaced by large aggregates and more narrow ribbons

Reference: patent US20020164348A1 (priority 2000, published 2002)
